The results in this text go back to PMC5589637, “New perspectives of cobalt tris(bipyridine) system: anti-cancer effect and its collateral sensitivity towards multidrug-resistant (MDR) cancers” (Oncotarget, 2017).

What is called IC50 is the midpoint of a concentration-inhibition curve.

The test system of data set [1] is HeLa cancer cells. The data set can be described thus: Western blot of S phase cell cycle markers. It is filed as cell-based. Particulars: 24 h, 10 and 15 μM. The procedure:
(§1) Western blot analysis was carried out following standard methods. Cells were lysed with RIPA lysis buffer with protease and phosphatase inhibitor cocktails. Protein concentrations were determined using the Bio-Rad protein assay (Bio-Rad Laboratories, Inc., Hercules, CA, USA). After electrophoresis, the proteins from SDS/PAGE were electro-transferred to a Hybond enhanced chemiluminescence nitrocellulose membrane (Amersham Biosciences, NJ, USA), which was then blocked with 5% dried milk for 1 hour. After washing, the blot was incubated with the indicated primary antibodies overnight at 4°C. Detection was performed using appropriated HRP-conjugated secondary antibodies for 1 hour at RT followed by chemiluminescence (Invitrogen).
Background: A western blot detects proteins with antibodies after separation by electrophoresis.

Data set [2] deals with C13 (cisplatin-resistant) cells. The experiment in a line: MTT cytotoxicity, C13 (cisplatin-resistant). The class given is cell-based. An excerpt: (§2) All cells were obtained from the American Type Culture Collection (Rockville, MD, USA) unless otherwise specified. Immortalized wild-type and Atg7-deficient mouse embryonic fibroblasts (MEFs) were kindly provided by Professor Masaaki Komatsu (Juntendo University, School of Medicine, Japan). Taxol-resistant types of MCF-7, HCT-8, A549 cancers cells and cisplatin-resistant SGC7901 cancer cells were purchased from KeyGEN BioTECH, China. Cisplatin-sensitive or –resistant A2780, OV2008 and C13 cancer cells were kindly provided by Prof. Benjamin Tsang (Department of Obstetrics and Gynecology and Department of Cellular and Molecular Medicine, University of Ottawa, Canada). HCT116 p53^+/+ and p53^−/− isogenic human colon cancer cells were kindly provided by Professor Bert Vogelstein (Ludwig Center at Johns Hopkins, Howard Hughes Medical Institute, USA). All media were supplemented with 10% fetal bovine serum and antibiotics penicillin (50 U/ml) and streptomycin (50 μg/ml; Invitrogen, Paisley, Scotland, UK). All cell cultures were incubated at 37°C in a 5% humidified CO2 incubator.
(§3) All tested compounds were dissolved in DMSO at a final concentration of 50 mmol/L and stored at −20°C before use. Cytotoxicity was assessed by using the 3-(4,5-dimethylthiazol-2-yl)-2, 5-diphenyltetrazolium bromide (MTT) (5.0 mg/ml) assay as previously described. Briefly, 4×10^3 cells per well were seeded in 96-well plates before drug treatments. After overnight culture, the cells were then exposed to different concentrations of selected compounds ([…]) for 72 hours. Cells without drug treatment were used as control. Subsequently, MTT (10 μL) solution was added to each well and incubated at 37°C for 4 hours followed by the addition of 100 μL solubilization buffer (10%SDS in 0.01 mol/L HCl) and overnight incubation. A570 nm was then determined in each well on the next day. The percentage of cell viability was calculated using the following formula: Cell viability (%) = Atreated/Acontrol × 100. Data were obtained from three independent experiments.

Data set [3] deals with HeLa cancer cells. The experiment in a line: Endogenous autophagy detection (LC3-II puncta immunofluorescence). It is filed as cell-based. Particulars: 24 h. As to the method:
The detection of endogenous LC3 was conducted using immunofluorescence staining method as described below. In brief, cobalt complex 2-treated HeLa cancer cells on cover slips were fixed with 4% paraformaldehyde (Sigma) for 20 min at room temperature and then rinsed with PBS. Coverslips were immersed in methanol at room temperature for 2 min. After washing with PBS, the cells were then incubated with anti-LC3 (1:200) in TBST (100 mM Tris HCl, pH 7.5, 150 mM NaCl, 0.05% Tween 20 and 5% BSA) overnight at 4 °C. After washing with PBS, the cells were incubated with anti-mouse secondary antibody (TRITC) (1:200) in TBST containing 5% BSA at 37°C for 1 hour in the dark. The coverslips were then mounted with FluorSave™ mounting media (Calbiochem, San Diego, CA, USA) for fluorescence imaging and localization of LC3 autophagosomes were captured under the API Delta Vision Live-cell Imaging System (Applied Precision Inc.,GE Healthcare Company, Washington, USA). To quantify autophagy, guidelines were followed. The percentage of cells with autophagic induction was calculated by the number of the cells with increased formation of punctate LC3 fluorescence dots (≥ 10 dots/cell) over the total number of immunofluorescence-positive cells in the same field. A minimum of 1000 cells from randomly selected fields were scored.

Data set [4] relates to MCF-7 (breast cancer) cells. The experiment in a line: MTT cytotoxicity assay, MCF-7. The class given is cell-based. The following applies: MCF-7, MTT, 72 h. As to the method:
as §3
Background: Tetrazolium dyes change colour on reduction, which living cells bring about.

For another data set, the system named is H1299 cell. The data set can be described thus: Western blot of cell invasion markers MMP-9 and ICAM-1. Particulars: 0.5 μM. The class given is cell-based, human. The procedure: as §1
Data set [5] deals with A549 taxol-resistant cancer cells. The experiment in a line: MTT cytotoxicity, taxol-resistant A549. The class given is cell-based.
Description: as §2, §3

For data set [6], the system named is MCF-7 taxol-sensitive cancer cells. The experiment in a line: MTT cytotoxicity, taxol-sensitive MCF-7. The following applies: 72 h. The class given is cell-based.
Description: as §2, §3

The test system of data set [7] is OV2008 (cisplatin-sensitive) cells. The data set can be described thus: MTT cytotoxicity, OV2008 (cisplatin-sensitive). It is filed as cell-based. Particulars: 72 h, read-out: IC50 value, cisplatin-sensitive cancer, OV2008.
Description: as §2, §3

The subject of another data set is Atg7^−/− deficient MEFs. The experiment in a line: MTT cytotoxicity, Atg7 deficient MEFs. The following applies: 72 h. The class given is cell-based, mouse.
Description: as §2, with “All media were supplemented with 10% fetal bovine serum and antibiotics penicillin (50 U/ml) and streptomycin (50 μg/ml; Invitrogen, Paisley, Scotland, UK). All cell cultures were incubated at 37°C in a 5% humidified CO2 incubator.” left out
All tested compounds were dissolved in DMSO at a final concentration of 50 mmol/L and stored at −20°C before use. Cytotoxicity was assessed by using the 3-(4,5-dimethylthiazol-2-yl)-2, 5-diphenyltetrazolium bromide (MTT) (5.0 mg/ml) assay as previously described. […] A570 nm was then determined in each well on the next day. The percentage of cell viability was calculated using the following formula: Cell viability (%) = Atreated/Acontrol × 100. […]

Another data set concerns the target P-gp (Homo sapiens, UniProt P08183). Particulars: taxol-resistant MCF-7, HCT-8 and A549, 0.5-10 μM, 4 h, dose-dependent.
The test system of data set [8] is normal human LO2 hepatocytes. The data set can be described thus: MTT cytotoxicity assay, LO2. The class given is cell-based. The following applies: 72 h. The procedure: as §3
Data set [9] deals with MCF-7 taxol-resistant cancer cells. The experiment in a line: MTT cytotoxicity, taxol-resistant MCF-7. The class given is cell-based.
Description: as §2, §3

For data set [10], the system named is SGC-7901 cisplatin-sensitive cancer cells. The data set can be described thus: MTT cytotoxicity, cisplatin-sensitive SGC-7901. The class given is cell-based. The following applies: 72 h.
Description: as §2, §3

The test system of data set [11] is H1299 (lung cancer) cells. The data set can be described thus: MTT cytotoxicity assay, H1299. It is filed as cell-based, human. Particulars: 72 h. As to the method: as §3
Data set [12] has as its system A2780 cisplatin-sensitive cancer cells. The experiment in a line: MTT cytotoxicity, cisplatin-sensitive A2780. It is filed as cell-based. The following applies: 72 h.
Description: as §2, §3

In data set [13] the test system is H1975 (EGFR mutant lung cancer) cells. The experiment in a line: MTT cytotoxicity assay, H1975. It is filed as cell-based. Particulars: 72 h. The procedure:
as §3

Molecules are shown by their SMILES.

Sequence of P-gp (P08183 whole entry): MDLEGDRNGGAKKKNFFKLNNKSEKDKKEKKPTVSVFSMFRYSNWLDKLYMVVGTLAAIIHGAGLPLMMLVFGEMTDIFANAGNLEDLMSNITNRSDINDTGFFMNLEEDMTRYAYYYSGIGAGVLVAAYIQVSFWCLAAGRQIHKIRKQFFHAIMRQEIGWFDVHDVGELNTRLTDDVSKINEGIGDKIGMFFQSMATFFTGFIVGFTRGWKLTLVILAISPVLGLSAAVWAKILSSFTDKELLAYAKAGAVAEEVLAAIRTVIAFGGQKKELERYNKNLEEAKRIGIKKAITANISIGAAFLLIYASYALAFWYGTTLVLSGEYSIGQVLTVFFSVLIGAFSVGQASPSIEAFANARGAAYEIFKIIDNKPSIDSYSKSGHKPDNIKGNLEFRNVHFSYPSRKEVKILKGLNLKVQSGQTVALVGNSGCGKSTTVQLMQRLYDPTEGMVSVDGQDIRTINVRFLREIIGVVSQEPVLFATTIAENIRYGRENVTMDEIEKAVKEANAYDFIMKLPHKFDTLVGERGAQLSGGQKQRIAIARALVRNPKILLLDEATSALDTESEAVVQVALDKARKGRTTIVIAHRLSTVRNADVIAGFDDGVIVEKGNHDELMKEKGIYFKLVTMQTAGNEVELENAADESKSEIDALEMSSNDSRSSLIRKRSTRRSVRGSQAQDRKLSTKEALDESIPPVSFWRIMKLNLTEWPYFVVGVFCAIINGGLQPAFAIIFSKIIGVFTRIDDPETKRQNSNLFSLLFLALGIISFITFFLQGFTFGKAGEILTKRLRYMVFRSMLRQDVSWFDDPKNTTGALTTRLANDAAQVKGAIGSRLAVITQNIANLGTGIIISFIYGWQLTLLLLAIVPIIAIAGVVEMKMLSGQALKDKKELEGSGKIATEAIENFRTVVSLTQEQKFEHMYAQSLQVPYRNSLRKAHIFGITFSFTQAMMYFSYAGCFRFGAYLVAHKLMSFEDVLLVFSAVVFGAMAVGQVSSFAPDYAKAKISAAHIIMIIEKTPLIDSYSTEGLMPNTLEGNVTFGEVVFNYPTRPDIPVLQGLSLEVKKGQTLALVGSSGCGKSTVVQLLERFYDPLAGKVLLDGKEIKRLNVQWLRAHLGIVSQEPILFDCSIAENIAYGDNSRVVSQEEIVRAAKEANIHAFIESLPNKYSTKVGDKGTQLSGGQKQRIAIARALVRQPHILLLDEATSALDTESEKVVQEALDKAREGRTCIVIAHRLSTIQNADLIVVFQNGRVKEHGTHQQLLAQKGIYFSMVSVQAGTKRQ
Description for P-gp: Taxol-resistant cancer cells were seeded in 6 well plate with 2 × 10^5 cells each well and cultured for 24 h at 37°C in an atmosphere containing 5% CO2. […] Subsequently, 5 μg/mL of Rho123 was added to each well and the wells were incubated for another 1 h at 37°C. The accumulation of Rho123 was stopped by washing the cells five times with ice-cold PBS. The cells were then resuspended in 400 μL PBS for flow cytometry analysis. Intracellular fluorescence was measured using a flow cytometer at an excitation wavelength of 488 nm and emission wavelength of 525 nm. All data acquisition and analysis were performed with CellQuest (BD Biosciences, San Jose, CA, USA) with at least three independent experiments. Results were shown as the mean of fluorescence intensity.

`Cc1ccnc(-c2cc(C)ccn2)c1.Cc1ccnc(-c2cc(C)ccn2)c1.Cc1ccnc(-c2cc(C)ccn2)c1.F[P-](F)(F)(F)(F)F.F[P-](F)(F)(F)(F)F.F[P-](F)(F)(F)(F)F.[Co+3]` [complex 2, [Co^III(4,4’-Me2-bpy)3](PF6)3]: the “protein level of cyclin A and E2F” value in the data set with HeLa cancer cells [1] is reported as “significant accumulation”. The “protein level of cyclin D and E, cdk4, and cdk2” value in the data set on HeLa cancer cells [1] is “decreased”. Further, the IC50 in data set [2] (C13 (cisplatin-resistant), MTT, 72 h, read-out: IC50 value, cisplatin-resistant cancer, C13) amounted to 7.59 µM; in data set [4] it was 6.03 µM; in [5] (A549 taxol-resistant, MTT, 72 h) it was 2.85 µM; in data set [6] it was 4 µM; in data set [7] it was 7.62 µM; with Atg7^−/− deficient MEFs, 14 µM. Moreover, the IC50 in data set [8] was determined as 13.2 µM; in data set [9] (MCF-7 taxol-resistant, MTT, 72 h), 2.71 µM; in data set [10], 11.1 µM; in [11], 2.84 µM; in [12] it was 12.3 µM; in data set [13], 8.84 µM. In addition, the “Resistant Factor, OV2008/C13 pair” value in data set [2] (C13 (resistant) IC50 over OV2008 (sensitive) IC50) was 1.0. The “autophagy induction (percentage of cells with endogenous LC3-II puncta formation)” value with HeLa cancer cells [3] is given as “induce autophagy in dose-dependent manner”. In the data set with H1299 cell, the “expression of MMP-9 and ICAM-1” value was “significantly downregulated”. Further, in data set [5] (IC50 of taxol-resistant cells over IC50 of taxol-sensitive cells, A549), the “Resistant Factor, A549” value amounted to 0.25. For the same molecule, the “effect on P-gp activity (Rho123 accumulation)” value at P-gp is reported as “induced inhibitory effects towards P-gp activity in all the treated cell lines”. Moreover, the “Resistant Factor, MCF-7” value in [9] (IC50 of taxol-resistant cells over IC50 of taxol-sensitive cells, MCF-7) is listed as 0.68.
